Measured values as given in patent publication US10287328B2, “Treatment of diabetes, toll-like receptor 4 modulators and methods for using the same” (KeMyth Biotech Co., Ltd., priority 2016, dated 2019).

Columns and labels:
[1] = tested on: sICAM-1, sVCAM-1, sE-selectin; assay: Serum sICAM-1, sVCAM-1 and sE-selectin (ELISA) in HFD-induced type 2 diabetic rats; type: in vivo, Sprague-Dawley rats; settings: STZ-injected HFD-fed rats, compared to STZ+vehicle
Protocol: (§1) The Sprague-Dawley rats were allocated to two dietary regimens by feeding either normal or HFD ad libitum, for the initial period of 2 weeks. After 2 weeks of dietary manipulation, the group of rats fed HFD were injected intraperitoneally (i.p.) with a low dose of STZ (35 mg/kg b.w.), while the respective control rats were given vehicle citrate buffer (pH 4.5) in a dose volume of 1 mL/kg, i.p. Seven days after STZ injection, rats were screened for blood glucose levels. Overnight fasted (10-12 hours) animals were given glucose (3 g/kg b.w.) by gastric intubation. After 2 hours of oral administration, blood samples were taken from lateral tail vein, left to coagulate and centrifuged; then serum glucose concentration was measured. Rats having serum glucose ≥200 mg/dL after 2 hours of glucose intake were considered diabetic and selected for further pharmacological studies. The rats were allowed to continue to feed on their respective diets until the end of the study (16).
The experimental animals were divided into three groups, each group comprising six rats designated as follows: (1) group 1 served as control rats (non-DM control); (2) group 2 served as diabetic control rats (STZ+vehicle); and (3) group 3 served as diabetic treatment rats administered with C70PLY4 (2 mg/kg/3 days) in aqueous suspension i.p. for 30 days (STZ+C70PLY4). By the end of the experiment, animals were sacrificed and blood samples, muscle and liver were obtained.
(§2) The levels of insulin, sICAM-1, sVCAM-1, and E-selectin in serum were determined by using sandwich ELISA (R&D) according to manufacturer's protocols.

[2] = tested on: ERK1/2 and NFκB-p65 subunit phosphorylation; assay: Western blot of LPS-induced ERK1/2 and NFκB-p65 phosphorylation in HUVECs; type: cell-based, human; settings: LPS 1 μg/mL plus C70PLY4 100, 300 and 500 nM, 24 h
Protocol: Cells were kept as the control, treated with LPS (1 μg/mL), or co-treated with LPS (1 μg/mL) and C70PLY4 (100, 300, and 500 nM) for 24 h and the phosphorylation of ERK1/2 and NFκB-p65 subunit were determined by Western blot. Cells were collected by scraping and lysed with RIPA buffer containing 1% NP-40, 0.5% sodium deoxycholate, 0.1% SDS, and a protease inhibitor mixture (PMSF, aprotinin, and sodium orthovanadate). The total cell lysate (50 μg of protein) was separated by SDS-polyacrylamide gel electrophoresis (PAGE) (10% running, 4% stacking) and transferred onto a polyvinylidene fluoride membrane (Immobilon P, 0.45-μm pore size). The membrane was then incubated with the designated antibodies. Immunodetection was performed by using the Western-Light chemiluminescent detection system (Applied Biosystems, Foster City, Calif.).
The present study determined if C70PLY4 inhibits LPS-induced signaling, including protein ERK1/2 and NFκB-p65 subunit, in the human umbilical vein endothelial cells (HUVECs) by using western blot assay (FIG. 14, panel A). The cells were kept as control, treated with LPS (1 μg/mL) only for 24 h, or co-treated with LPS (1 μg/mL) and C70PLY4 (100, 300, and 500 nM) for 24 h and the protein phosphorylation of ERK1/2 and NFκB-p65 subunit were examined.

[3] = Serum insulin level (sandwich ELISA) in HFD-induced, STZ-injected type 2 diabetic rats; type: in vivo, Sprague-Dawley rats; settings: STZ-injected HFD-fed rats, 2 mg/kg/3 days i.p. for 30 days, compared to STZ+vehicle
Protocol: as §1, with “(16). […]” for “(16).”
as §2

[4] = Blood glucose level in HFD-induced, STZ-injected type 2 diabetic rats; type: in vivo, Sprague-Dawley rats; settings: STZ-injected HFD-fed rats, 2 mg/kg/3 days i.p. for 30 days, compared to STZ+vehicle
Protocol: as §1, with “(16). […]” for “(16).”
Blood Glucose Test Strips and Blood Glucose Monitoring System were used to determine whole blood glucose levels on a drop of tail blood collected between 10 am and midday. Glucose concentration was determined colorimetrically using a glucose oxidase/peroxidase reagent kit. Samples were incubated with 100 μl of assay reagent at 37° C. for 30 min and measured at 540 nm. […]

[5] = Blood glucose level in C57BL/KsJ-db/db diabetic mice; type: in vivo; settings: 2 mg/kg/3 days i.p. for 30 days, compared with control group, after week 2
Protocol: Male C57BL/KsJ-db/db mice (diabetic deficiency knockout mice) at 5 weeks of age (23 g) were fed a pelletized commercial chow diet for acclimation from the arrival for 2 weeks. […]. They were given free access to food and distilled water, and the food consumption and body weight gain were measured daily and weekly, respectively. […]; and (2) group 2 served as diabetic mice administered C70PLY4 (2 mg/kg/3 days) in aqueous suspension i.p. for 30 days (C70PLY4). […] The blood was centrifuged at 1000 g for 15 min at 4° C., and plasma and erythrocyte were separated. The livers and adipose tissues were removed, washed, weighted, and frozen at −70° C. until analyzed.
Blood Glucose Test Strips and Blood Glucose Monitoring System were used to determine whole blood glucose levels on a drop of tail blood collected between 10 am and midday. Glucose concentration was determined colorimetrically using a glucose oxidase/peroxidase reagent kit. Samples were incubated with 100 μl of assay reagent at 37° C. for 30 min and measured at 540 nm. Values were expressed in mg/dL.

MD2/TLR4 interaction = MD2/TLR4 interaction (Homo sapiens, UniProt O00206); assay: In vitro protein competition binding assay for MD2/TLR4 interaction; settings: MD2 50 nM
Sequence of MD2/TLR4 interaction (O00206 24-631): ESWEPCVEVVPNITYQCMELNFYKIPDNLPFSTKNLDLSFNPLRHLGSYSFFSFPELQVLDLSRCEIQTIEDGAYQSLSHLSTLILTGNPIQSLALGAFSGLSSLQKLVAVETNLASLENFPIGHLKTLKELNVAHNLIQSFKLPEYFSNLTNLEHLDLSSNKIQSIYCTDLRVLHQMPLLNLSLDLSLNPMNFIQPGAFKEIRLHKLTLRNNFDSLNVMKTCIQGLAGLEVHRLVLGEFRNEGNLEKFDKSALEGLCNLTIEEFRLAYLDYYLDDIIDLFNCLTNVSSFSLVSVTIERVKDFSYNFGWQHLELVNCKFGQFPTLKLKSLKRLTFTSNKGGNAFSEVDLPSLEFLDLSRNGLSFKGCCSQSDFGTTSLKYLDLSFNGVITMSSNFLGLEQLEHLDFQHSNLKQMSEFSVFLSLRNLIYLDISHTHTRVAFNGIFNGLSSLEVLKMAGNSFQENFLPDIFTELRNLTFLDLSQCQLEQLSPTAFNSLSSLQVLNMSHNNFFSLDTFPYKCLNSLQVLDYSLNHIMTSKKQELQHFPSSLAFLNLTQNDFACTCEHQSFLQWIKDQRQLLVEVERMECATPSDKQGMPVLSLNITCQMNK
Protocol: The recombinant TLR4 protein was diluted in PBS (2 μg/mL) and immobilized on a 96-well (100 ng/well) ELISA plate by incubation at 37° C. for 2 h. The wells were washed three times with PBS, followed by blocking with the addition of 300 μL 5% BSA in PBS at ambient temperature overnight. Then, the plate was rewashed three times with PBST before performed competition binding assay. The binding of MD2 (50 nM) to TLR4 was competed by adding various amounts (2-fold serial dilution from 50 μM to 3.05 nM) of C70PLY4, N35PLY4, or M50PLY4 peptide, and the residual binding was examined using anti-MD2 and anti-mouse-IgG-HRP antibodies diluted in 1% BSA as described in herein.

HUVECs = assay: Cell apoptosis, TUNEL assay in HUVECs; type: cell-based, human; settings: compared to control cells
Protocol: Cell apoptosis was detected by using commercial terminal deoxynucleotidyl transferase-dUTP nick end labeling (TUNEL) and caspase-3 activity kits, i.e., Apo-BrdU in Situ DNA Fragmentation Assay Kit (BioVision) and NucView™ 488 Caspase-3 Enzyme Substrate (Biotium). In brief, after incubation with M199 media in the presence or absence of […] various PLY peptides, at 37° C., 5% CO2 for 1 hour, HUVECs were washed with PBS and fixed with fixation buffer on ice for 20 min. Cells were then soaked in 70% alcohol for 1 hr. After 2 times of wash by washing buffer, cells were incubated in DNA labeling solution for 60 min at 37° C. Cells were then treated with rinse buffer and incubated with antibody buffer for 30 min at room temperature. The cell nuclei were stained with propidium iodide for 30 min. Samples were observed by fluorescent microscopeand photographed charge-coupled device (CCD) camera.

QDLTAHFTTSIPLKGNVRNLSVKIRECTGLAWEWWRTVYEKTDLPLVRKRTISIWGTTLYPQVEDKVEND [C70PLY4]
serum sE-selectin level [1]: decreased | serum sICAM-1 level [1]: decreased sICAM-1 | serum sVCAM-1 level [1]: decreased | LPS-induced ERK1/2 phosphorylation [2]: significantly inhibited | LPS-induced NFκB-p65 subunit phosphorylation [2]: significantly inhibited | blood insulin levels [3]: increased blood insulin levels | blood glucose levels [4]: decreased blood glucose | blood glucose level [5]: significantly decreases | concentration at which MD2 protein is completely competed away (MD2/TLR4 interaction; TLR4-coated well): 6.25 µM | blocking capability for MD2 and TLR4 protein interaction (in words) (MD2/TLR4 interaction; peptide 50 μM to 3.05 nM): dose-dependent blocking capability | apoptotic potential, TUNEL assay (HUVECs): no apoptotic potential
